According to BindingDB's records for doi:10.3109/14756361003698147 (Shandong University, 2012):
Structures can show the parent of a compound that is named as a salt.

Experiments:
[1] = molecular target: 72 kDa type IV collagenase (Homo sapiens, UniProt P08253); experiment: In Vitro MMP-2 Inhibition Assay; conditions: pH 8.5; 25 °C
Aminopeptidase N = molecular target: T1, Aminopeptidase N (Sus scrofa, UniProt P15145); experiment: In Vitro APN Inhibition Assay
T1 sequence (P15145 whole entry): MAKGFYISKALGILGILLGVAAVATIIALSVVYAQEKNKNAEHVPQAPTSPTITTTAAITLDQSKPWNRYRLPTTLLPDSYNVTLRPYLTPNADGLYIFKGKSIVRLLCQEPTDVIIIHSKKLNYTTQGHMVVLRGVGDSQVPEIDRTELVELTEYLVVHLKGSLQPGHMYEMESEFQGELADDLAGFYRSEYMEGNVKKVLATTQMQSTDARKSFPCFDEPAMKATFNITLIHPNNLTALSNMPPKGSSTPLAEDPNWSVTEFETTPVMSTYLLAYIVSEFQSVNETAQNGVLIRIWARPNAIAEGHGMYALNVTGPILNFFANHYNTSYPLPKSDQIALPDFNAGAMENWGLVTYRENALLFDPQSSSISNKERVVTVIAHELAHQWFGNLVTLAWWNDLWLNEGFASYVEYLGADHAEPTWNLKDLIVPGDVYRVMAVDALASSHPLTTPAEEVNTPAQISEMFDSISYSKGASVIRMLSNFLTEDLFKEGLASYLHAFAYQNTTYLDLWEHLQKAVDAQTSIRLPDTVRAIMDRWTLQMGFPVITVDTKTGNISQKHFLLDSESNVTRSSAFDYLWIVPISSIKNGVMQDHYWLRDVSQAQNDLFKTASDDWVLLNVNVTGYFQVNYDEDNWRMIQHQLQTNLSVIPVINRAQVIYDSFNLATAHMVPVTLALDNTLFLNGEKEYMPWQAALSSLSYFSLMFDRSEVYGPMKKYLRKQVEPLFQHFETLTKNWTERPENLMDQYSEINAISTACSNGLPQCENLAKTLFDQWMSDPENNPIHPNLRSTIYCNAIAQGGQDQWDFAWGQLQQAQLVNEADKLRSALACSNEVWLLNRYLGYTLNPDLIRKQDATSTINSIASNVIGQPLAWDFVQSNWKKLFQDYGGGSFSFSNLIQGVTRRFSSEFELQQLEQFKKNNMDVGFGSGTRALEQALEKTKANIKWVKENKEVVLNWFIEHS
Experimental: Allcompounds were pre-incubated with APN on a 96-well plate for 30 min. […] Fifteen minutes later, the absorbance (OD405) of the wells was recorded on a microplate reader.

Sequence of 72 kDa type IV collagenase (P08253 whole entry): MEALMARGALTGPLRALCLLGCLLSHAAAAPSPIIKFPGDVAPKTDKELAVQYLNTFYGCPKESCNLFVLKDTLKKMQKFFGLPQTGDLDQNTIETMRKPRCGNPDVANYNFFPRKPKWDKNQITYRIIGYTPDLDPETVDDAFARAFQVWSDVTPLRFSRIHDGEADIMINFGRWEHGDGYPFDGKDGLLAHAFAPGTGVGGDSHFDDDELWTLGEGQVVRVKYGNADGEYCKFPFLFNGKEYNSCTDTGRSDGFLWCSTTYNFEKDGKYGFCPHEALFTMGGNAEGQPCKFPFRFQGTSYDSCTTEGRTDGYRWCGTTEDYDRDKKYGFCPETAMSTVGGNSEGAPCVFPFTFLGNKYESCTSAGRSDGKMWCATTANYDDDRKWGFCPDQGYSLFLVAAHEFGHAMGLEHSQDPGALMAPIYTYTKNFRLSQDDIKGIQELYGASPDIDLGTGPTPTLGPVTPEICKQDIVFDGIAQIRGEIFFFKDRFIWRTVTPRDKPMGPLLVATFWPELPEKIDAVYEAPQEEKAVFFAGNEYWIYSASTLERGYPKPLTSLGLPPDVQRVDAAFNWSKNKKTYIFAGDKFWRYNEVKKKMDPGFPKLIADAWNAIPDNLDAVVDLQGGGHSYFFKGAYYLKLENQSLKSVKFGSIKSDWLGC

Row | IC50 [1] | IC50 (Aminopeptidase N) | SMILES
1 | 167 µM |  | CC(C)C[C@H](NC(=O)[C@@H](O)[C@H](N)Cc1ccccc1)C(=O)O
2 | 364 µM | 199 µM | CC(C)C[C@H](NC(=O)[C@@H](O)CN)C(=O)O
3 | 710 µM | 249 µM | NC[C@H](O)C(=O)N[C@@H](Cc1ccccc1)C(=O)O [(2S)-2-[(2S)-3-amino-2-hydroxypropanamido]-3-phenylpropanoic acid (12a)]
4 | 329 µM | 99.5 µM | NC[C@H](O)C(=O)N[C@@H](Cc1ccccc1)C(=O)OCc1ccccc1 [L-Isoseryl-L- phenylalanine benzyl ester hydrochloride (11c)]
5 | 1000 µM | 195 µM | CC(C)C[C@H](NC(=O)[C@@H](O)CN)C(=O)OCc1ccccc1 [L-Isoseryl-L-leucine benzyl ester hydrochloride (11d)]
6 | 682 µM | 229 µM | COC(=O)[C@H](CC(C)C)NC(=O)[C@@H](O)CN [L-Isoseryl-L-leucine methyl ester hydrochloride (11b)]
7 | 115 µM | 20.9 µM | CC(C)C[C@H](NC(=O)[C@@H](O)CN)C(=O)N[C@@H](Cc1ccccc1)C(=O)O [L-Isoseryl-L-leucyl-L-phenylalanine hydrochloride (14a)]
8 | 126 µM | 140 µM | COC(=O)[C@H](Cc1ccccc1)NC(=O)[C@H](CC(C)C)NC(=O)[C@@H](O)CN [L-Isoseryl-L-leucyl-L-phenylalanine methyl ester hydrochloride (13a)]
9 | 334 µM | 32.2 µM | CC(C)C[C@H](NC(=O)[C@H](Cc1ccccc1)NC(=O)[C@@H](O)CN)C(=O)OCc1ccccc1 [L-Isoseryl-L-phenylalanyl-L-leucine benzyl ester hydrochloride (13d)]
10 | 203 µM | 12.2 µM | CC(C)C[C@H](NC(=O)[C@H](Cc1ccccc1)NC(=O)[C@@H](O)CN)C(=O)O [L-Isoseryl-L-phenylalanyl-L-leucine hydrochloride (14b)]
11 | > 1000 µM | 302 µM | COC(=O)[C@H](Cc1ccccc1)NC(=O)[C@@H](O)CN [Methyl (2S)-2-[(2S)-3-amino-2-hydroxypropanamido]-3-phenylpropanoate (11a)]
